Where “and” joins values, the source holds several entries; their conditions need not be identical. Equal entries are not always repeated. Inconclusive results and toxic doses are left out.
Tested on: L1210 leukemia ip in BDF1 mice, survival T/C
Assay: NCI In Vivo Anticancer Drug Screen. Data for tumor model L1210 Leukemia (intraperitoneal) in B6D2F1 (BDF1) mice
Details: higher = longer survival
Summary of the method: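 In this screen, tumor-bearing mice given compound are compared to those given vehicle, and their survival values are reported as a treated-to-control quotient.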

[1] = endpoint: mean survival time, dose: 100.0 mg/kg/injection, schedule: Q01DX001 (ip), vehicle: saline with Tween-80
[2] = endpoint: mean survival time, dose: 200.0 mg/kg/injection, schedule: Q01DX001 (ip), vehicle: saline with Tween-80
[3] = endpoint: mean survival time, dose: 400.0 mg/kg/injection, schedule: Q01DX001 (ip), vehicle: saline with Tween-80
[4] = endpoint: mean survival time, dose: 25.0 mg/kg/injection, schedule: Q01DX009 (ip), vehicle: saline
[5] = endpoint: mean survival time, dose: 25.0 mg/kg/injection, schedule: Q04DX003 (ip), vehicle: saline
[6] = endpoint: mean survival time, dose: 50.0 mg/kg/injection, schedule: Q01DX009 (ip), vehicle: saline
[7] = endpoint: mean survival time, dose: 50.0 mg/kg/injection, schedule: Q04DX003 (ip), vehicle: saline
[8] = endpoint: mean survival time, dose: 100.0 mg/kg/injection, schedule: Q01DX001 (ip), vehicle: saline
[9] = endpoint: mean survival time, dose: 100.0 mg/kg/injection, schedule: Q04DX003 (ip), vehicle: saline
[10] = endpoint: mean survival time, dose: 100.0 mg/kg/injection, schedule: Q01DX009 (ip), vehicle: saline
[11] = endpoint: mean survival time, dose: 25.0 mg/kg/injection, schedule: Q01DX009 (ip), vehicle: Klucel (hydroxypropylcellulose) (HPC)
[12] = endpoint: mean survival time, dose: 100.0 mg/kg/injection, schedule: Q01DX009 (ip), vehicle: Klucel (hydroxypropylcellulose) (HPC)
[13] = endpoint: mean survival time, dose: 100.0 mg/kg/injection, schedule: Q04DX003 (ip), vehicle: Klucel (hydroxypropylcellulose) (HPC)
[14] = endpoint: mean survival time, dose: 200.0 mg/kg/injection, schedule: Q04DX003 (ip), vehicle: Klucel (hydroxypropylcellulose) (HPC)
[15] = endpoint: mean survival time, dose: 400.0 mg/kg/injection, schedule: Q04DX003 (ip), vehicle: Klucel (hydroxypropylcellulose) (HPC)

`CCOC(=O)c1ccc(NC(=O)Nc2cc(OC)ccc2OC)cc1` was tested, and the T/C (endpoint: mean survival time, dose: 25.0 mg/kg/injection, schedule: Q01DX009 (ip), vehicle: saline with Tween-80) was 100 % of control and 91 % of control, the T/C (endpoint: mean survival time, dose: 50.0 mg/kg/injection, schedule: Q01DX009 (ip), vehicle: saline with Tween-80) was 95 % of control and the T/C [1] was 98 % of control. The T/C (endpoint: mean survival time, dose: 100.0 mg/kg/injection, schedule: Q04DX002 (ip), vehicle: saline with Tween-80) was 96 % of control, the T/C (endpoint: mean survival time, dose: 100.0 mg/kg/injection, schedule: Q04DX003 (ip), vehicle: saline with Tween-80) was 96 % of control and the T/C [2] was 95 % of control. For the same molecule, the T/C (endpoint: mean survival time, dose: 200.0 mg/kg/injection, schedule: Q01DX009 (ip), vehicle: saline with Tween-80) was 91 % of control, the T/C (endpoint: mean survival time, dose: 200.0 mg/kg/injection, schedule: Q04DX002 (ip), vehicle: saline with Tween-80) was 100 % of control and the T/C [3] was 91 % of control. For the same molecule, the T/C (endpoint: mean survival time, dose: 400.0 mg/kg/injection, schedule: Q04DX002 (ip), vehicle: saline with Tween-80) was 94 % of control.
For `N#[N+]c1n[nH]nc1C(N)=O`, the T/C (endpoint: mean survival time, dose: 25.0 mg/kg/injection, schedule: Q01DX Z (ip), vehicle: carboxymethylcellulose (CMC)) was 97 % of control and the T/C (endpoint: mean survival time, dose: 35.0 mg/kg/injection, schedule: Q01DX Z (ip), vehicle: carboxymethylcellulose (CMC)) was 95 % of control.
For `CCCCNCC1COc2cccc(OCC)c2O1` (centres undefined), the T/C (endpoint: mean survival time, dose: 6.25 mg/kg/injection, schedule: Q01DX009 (ip), vehicle: saline) was 107 % of control, the T/C (endpoint: mean survival time, dose: 12.5 mg/kg/injection, schedule: Q01DX009 (ip), vehicle: saline) was 105 % of control and the T/C (endpoint: mean survival time, dose: 12.5 mg/kg/injection, schedule: Q04DX003 (ip), vehicle: saline) was 106 % of control. For the same molecule, the T/C [4] was 108 % of control, the T/C [5] was 95 % of control and the T/C [6] was 113 % of control. The T/C [7] was 108 % of control, the T/C [8] was 103 % of control and the T/C [9] was 95 % of control.
For `CCC(C)C(CCCCN(C)C)(CNC(=O)CN(CC)CC)c1cccc2ccccc12` (centres undefined), the T/C [10] was 99 % of control.
For `CN1CCN(c2ccc(Cl)cc2)CC1`, the T/C [11] was 97 % of control, the T/C (endpoint: mean survival time, dose: 25.0 mg/kg/injection, schedule: Q04DX003 (ip), vehicle: Klucel (hydroxypropylcellulose) (HPC)) was 97 % of control and the T/C (endpoint: mean survival time, dose: 50.0 mg/kg/injection, schedule: Q01DX009 (ip), vehicle: Klucel (hydroxypropylcellulose) (HPC)) was 106 % of control. For the same molecule, the T/C (endpoint: mean survival time, dose: 50.0 mg/kg/injection, schedule: Q04DX003 (ip), vehicle: Klucel (hydroxypropylcellulose) (HPC)) was 105 % of control, the T/C [12] was 100 % of control and the T/C [13] was 106 % of control.
With `CCOC(=O)/C(C(N)=O)=C(/C)C=C(C)C` the T/C (endpoint: mean survival time, dose: 10.0 mg/kg/injection, schedule: Q01DX001 (ip), vehicle: acetone) was 101 % of control and the T/C (endpoint: mean survival time, dose: 20.0 mg/kg/injection, schedule: Q01DX001 (ip), vehicle: acetone) was 100 % of control.
With `CCOC(=O)CC(CC(=O)OCC)C(=O)OCC` the T/C (endpoint: mean survival time, dose: 100.0 mg/kg/injection, schedule: Q04DX002 (ip), vehicle: saline) was 104 % of control, the T/C (endpoint: mean survival time, dose: 200.0 mg/kg/injection, schedule: Q04DX002 (ip), vehicle: saline) was 96 % of control and the T/C (endpoint: mean survival time, dose: 400.0 mg/kg/injection, schedule: Q04DX002 (ip), vehicle: saline) was 107 % of control.
For `COc1cc(C)c2c(c1)C(=O)OC2=O`, the T/C (endpoint: mean survival time, dose: 100.0 mg/kg/injection, schedule: Q01DX001 (ip), vehicle: Klucel (hydroxypropylcellulose) (HPC)) was 105 % of control, the T/C [13] was 100 % of control and the T/C (endpoint: mean survival time, dose: 200.0 mg/kg/injection, schedule: Q01DX001 (ip), vehicle: Klucel (hydroxypropylcellulose) (HPC)) was 108 % of control. The T/C [14] was 103 % of control, the T/C (endpoint: mean survival time, dose: 400.0 mg/kg/injection, schedule: Q01DX001 (ip), vehicle: Klucel (hydroxypropylcellulose) (HPC)) was 111 % of control and the T/C [15] was 97 % of control.
`CCC(C)N(C)/N=N/c1nc[nH]c1C(N)=O` (centres undefined) was tested, and the T/C (endpoint: mean survival time, dose: 11.0 mg/kg/injection, schedule: Q01DX009 (ip), vehicle: Klucel (hydroxypropylcellulose) (HPC)) was 110 % of control, the T/C (endpoint: mean survival time, dose: 16.7 mg/kg/injection, schedule: Q01DX009 (ip), vehicle: Klucel (hydroxypropylcellulose) (HPC)) was 123 % of control and the T/C (endpoint: mean survival time, dose: 16.8 mg/kg/injection, schedule: Q01DX009 (ip), vehicle: Klucel (hydroxypropylcellulose) (HPC)) was 124 % of control. For the same molecule, the T/C [11] was 124 % of control, the T/C (endpoint: mean survival time, dose: 25.0 mg/kg/injection, schedule: Q04DX003 (ip), vehicle: water) was 121 % of control and the T/C (endpoint: mean survival time, dose: 38.0 mg/kg/injection, schedule: Q01DX009 (ip), vehicle: Klucel (hydroxypropylcellulose) (HPC)) was 159 % of control. For the same molecule, the T/C (endpoint: mean survival time, dose: 50.0 mg/kg/injection, schedule: Q01DX001 (ip), vehicle: water) was 101 % of control, the T/C (endpoint: mean survival time, dose: 50.0 mg/kg/injection, schedule: Q01DX009 (ip), vehicle: water) was 154 % of control and the T/C (endpoint: mean survival time, dose: 50.0 mg/kg/injection, schedule: Q04DX003 (ip), vehicle: water) was 106 % of control. The T/C (endpoint: mean survival time, dose: 58.0 mg/kg/injection, schedule: Q01DX009 (ip), vehicle: Klucel (hydroxypropylcellulose) (HPC)) was 159 % of control, the T/C (endpoint: mean survival time, dose: 88.0 mg/kg/injection, schedule: Q01DX009 (ip), vehicle: Klucel (hydroxypropylcellulose) (HPC)) was 150 % of control and 186 % of control and the T/C (endpoint: mean survival time, dose: 100.0 mg/kg/injection, schedule: Q01DX001 (ip), vehicle: water) was 110 % of control. For the same molecule, the T/C (endpoint: mean survival time, dose: 100.0 mg/kg/injection, schedule: Q01DX009 (ip), vehicle: water) was 120 % of control, the T/C (endpoint: mean survival time, dose: 100.0 mg/kg/injection, schedule: Q04DX003 (ip), vehicle: water) was 110 % of control and the T/C (endpoint: mean survival time, dose: 133.0 mg/kg/injection, schedule: Q01DX009 (ip), vehicle: Klucel (hydroxypropylcellulose) (HPC)) was 106 % of control. For the same molecule, the T/C (endpoint: mean survival time, dose: 133.0 mg/kg/injection, schedule: Q04DX003 (ip), vehicle: saline with Tween-80) was 116 % of control and 124 % of control, the T/C (endpoint: mean survival time, dose: 200.0 mg/kg/injection, schedule: Q01DX001 (ip), vehicle: water) was 109 % of control and the T/C (endpoint: mean survival time, dose: 200.0 mg/kg/injection, schedule: Q04DX003 (ip), vehicle: saline with Tween-80) was 121 % of control. For the same molecule, the T/C (endpoint: mean survival time, dose: 200.0 mg/kg/injection, schedule: Q04DX003 (ip), vehicle: water) was 106 % of control, the T/C (endpoint: mean survival time, dose: 300.0 mg/kg/injection, schedule: Q04DX003 (ip), vehicle: saline with Tween-80) was 157 % of control and the T/C (endpoint: mean survival time, dose: 400.0 mg/kg/injection, schedule: Q04DX003 (ip), vehicle: water) was 94 % of control. The T/C (endpoint: median survival time, dose: 25.0 mg/kg/injection, schedule: Q01DX009 (ip), vehicle: Klucel (hydroxypropylcellulose) (HPC)) was 115 % of control, the T/C (endpoint: median survival time, dose: 50.0 mg/kg/injection, schedule: Q01DX009 (ip), vehicle: Klucel (hydroxypropylcellulose) (HPC)) was 155 % of control and the T/C (endpoint: median survival time, dose: 75.0 mg/kg/injection, schedule: Q01DX009 (ip), vehicle: Klucel (hydroxypropylcellulose) (HPC)) was 155 % of control. For the same molecule, the T/C (endpoint: median survival time, dose: 100.0 mg/kg/injection, schedule: Q01DX009 (ip), vehicle: Klucel (hydroxypropylcellulose) (HPC)) was 155 % of control, the T/C (endpoint: median survival time, dose: 100.0 mg/kg/injection, schedule: Q04DX003 (ip), vehicle: Klucel (hydroxypropylcellulose) (HPC)) was 110 % of control and the T/C (endpoint: median survival time, dose: 200.0 mg/kg/injection, schedule: Q04DX003 (ip), vehicle: Klucel (hydroxypropylcellulose) (HPC)) was 120 % of control. For the same molecule, the T/C (endpoint: median survival time, dose: 300.0 mg/kg/injection, schedule: Q04DX003 (ip), vehicle: Klucel (hydroxypropylcellulose) (HPC)) was 120 % of control and the T/C (endpoint: median survival time, dose: 400.0 mg/kg/injection, schedule: Q04DX003 (ip), vehicle: Klucel (hydroxypropylcellulose) (HPC)) was 100 % of control.
`COc1ccc(OC(=O)Nc2cc(Cl)ccc2C)cc1` was tested, and the T/C [12] was 94 % of control, the T/C (endpoint: mean survival time, dose: 200.0 mg/kg/injection, schedule: Q01DX009 (ip), vehicle: Klucel (hydroxypropylcellulose) (HPC)) was 91 % of control and the T/C (endpoint: mean survival time, dose: 400.0 mg/kg/injection, schedule: Q01DX009 (ip), vehicle: Klucel (hydroxypropylcellulose) (HPC)) was 94 % of control.
In the case of `[N-]=[N+]=Nc1ccc(Cl)cc1C(=O)c1ccccc1`, the T/C [4] is reported as 120 % of control, the T/C [5] is reported as 98 % of control and the T/C [6] is reported as 109 % of control. The T/C [7] was 104 % of control, the T/C [10] was 111 % of control and the T/C [9] was 102 % of control and 113 % of control.
In the case of `NC(=O)N/N=C/c1[nH]c(=S)[nH]c(=O)c1Cc1ccc(Br)cc1`, the T/C [1] is reported as 107 % of control, the T/C [2] is reported as 95 % of control and the T/C [3] is reported as 98 % of control.
`O=C(Nc1ccccc1)OC1CCCC2CCCCC21` (centres undefined) was tested, and the T/C [13] was 96 % of control, the T/C [14] was 96 % of control and the T/C [15] was 93 % of control.
`Nc1nc2ncnc(N)c2nc1-c1ccc(N(CCO)CCO)cc1` was tested, and the T/C [8] was 104 % of control, the T/C (endpoint: mean survival time, dose: 200.0 mg/kg/injection, schedule: Q01DX001 (ip), vehicle: saline) was 95 % of control and the T/C (endpoint: mean survival time, dose: 400.0 mg/kg/injection, schedule: Q01DX001 (ip), vehicle: saline) was 100 % of control.
With `NNC(=O)CCN1CC1` the T/C [13] was 109 % of control, the T/C [14] was 107 % of control and the T/C [15] was 115 % of control.
